In assay [1] the target is T1, LTD4 (contraction of isolated guinea pig trachea) (Cavia porcellus, UniProt Q2NNR5).
T1 construct: The tracheal ring is suspended between a glass hook and a force displacement transducer in a 10 ml organ bath; from tissue; host or cells: isolated tracheal rings of male Hartley guinea pigs
T1 sequence (Q2NNR5 1-340): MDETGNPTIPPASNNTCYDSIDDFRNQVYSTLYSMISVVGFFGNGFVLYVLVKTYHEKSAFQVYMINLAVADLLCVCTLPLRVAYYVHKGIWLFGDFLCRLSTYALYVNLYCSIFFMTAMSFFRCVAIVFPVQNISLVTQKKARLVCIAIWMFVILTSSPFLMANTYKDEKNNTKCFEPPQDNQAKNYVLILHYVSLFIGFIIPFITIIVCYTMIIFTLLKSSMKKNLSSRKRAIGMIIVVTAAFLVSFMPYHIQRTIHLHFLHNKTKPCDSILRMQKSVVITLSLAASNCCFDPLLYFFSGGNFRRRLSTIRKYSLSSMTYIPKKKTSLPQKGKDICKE
To be noted: literature value, reference (1); cited from earlier work.

Assay [2] has as its target T1, LTD4 (contraction of isolated guinea pig trachea). Briefly: Isolated guinea pig trachea assay, LTD4 antagonist activity. It is filed as cell-based. The procedure: The compounds of the invention are tested in the isolated guinea pig trachea assay to assess their LTD4 antagonist activity. Male Hartley guinea pigs (350-400 g) are euthanized by a blow to the head, the neck is opened and the trachea removed. The trachea is maintained in aerated physiological salt solution, cleared of connective tissue and fat and cut into rings approximately 2 mm in width (usually containing two cartilaginous segments per ring). Two pieces of silk suture are then passed through the lumen of the tracheal ring and are tied around the cartilage, one on each side of the trachealis muscle. The tracheal ring is suspended between a glass hook and a force displacement transducer in a 10 ml organ bath for measurement of isometric tension. Tissues are maintained at 37° C. in aerated (95% O2 /5% CO2) physiological salt solution of the following composition: […] The tracheal rings are maintained at 2 g resting tension and equilibrated for 45 minutes (with frequent washing and readjustment of resting tension). The tracheal rings are first contracted by the addition of carbachol (3×10^-6 M), to determine tissue responsiveness and establish a reference contraction. On attainment of a stable level of contraction (approximately 30 minutes), the tissues are washed several times until baseline tension has been restored and then re-equilibrated for 30 minutes. The tissues are then incubated for 45 minutes with a test antagonist (either 1×10^-6 M or 1×10^-5 M) or 10 μl of an appropriate solvent control (control, non-treated). One tissue in each group serves as the control. Twenty minutes prior to the construction of the LTD4 cumulative concentration-response curve, L-[…]×10^-2 M final bath concentration) is added to inhibit bioconversion of LTD4 to LTE4. Only one LTD4 concentration-response curve is constructed in each tissue. All responses to LTD4 are calculated as a percentage of the reference contraction to carbachol. LTD4 antagonist activity is determined by comparison of the concentration response curves of LTD4 in the presence and absence of antagonist. Assessment of the relative rightward shift of the antagonist treated curve relative to the solvent (control) treated tissue is calculated as a concentration ratio (Eq. A) and used in subsequent calculations to derive an antagonist pKB value (Eqs B&C). In the event that the maximum response to LTD4 is depressed, the EC50 for that particular curve is determined, an "apparent" pKB reported, and the compound reported as "not-competitive."

The test system of assay [3] is acute inflammatory response (carrageenan paw edema). Description: Rat carrageenan paw edema assay. It is filed as in vivo. As to conditions: po, 50 mg/kg peroral, 1 hour prior to carrageenan, edema at 3 hours. The procedure:
The compounds of the invention are tested in the rat carrageenan paw edema assay to determine their ability to inhibit the acute inflammatory response. 140-180 gm male Sprague-Dawley rats, in groups of 6 animals, are injected subcutaneously in the right paw with 0.1 ml of 1% carrageenan at zero time. Mercury plethysmographic readings (ml) of the paw are made at zero time and 3 hours later. Test compounds are suspended or dissolved in 0.5% methylcellulose and given perorally 1 hour prior to carrageenan administration. The increase in paw volume (edema in ml.) produced by the carrageenan is measured. […] Unpaired Student's t-test is used to determine statistical significance.
On the technique in general: The carrageenan paw model is a standard test of acute inflammation.

The test system of assay [4] is TxB2 synthesis (cyclooxygenase). Briefly: Inhibition of synthesis of cyclooxygenase oxidation product TxB2 (rat polymorphonuclear leukocytes). It is filed as cell-based. To be noted: Leukocyte, rat PMN; for IC50: A23187 10 μM, read-out: 50% Inhibitory Concentration (IC50). The procedure:
(§1) Peritoneal PMN are obtained from female Wistar rats (150-250 g) that received an i.p. injection of 6% glycogen (10 ml). After 24 hours, rats are killed by CO2 asphyxiation and peritoneal cells are harvested by peritoneal lavage using Ca^++ and Mg^++ free Hanks' balanced salt solution (HBSS). The peritoneal exudate is centrifuged at 400 g for 10 minutes. After centrifugation, the lavaged fluid is removed and the cell pellet is resuspended in HBSS containing Ca^++ and Mg^++ and 10 mM L-cysteine at a concentration of 2×10^7 cells/ml. To 1 ml portions of cell suspension, test drugs or vehicle are added and incubated at 37° C. for 10 minutes. Following this preincubation, the calcium ionophore (10 μM), A23187, is added together with 0.5 μCi [^14 C] arachidonic acid and further incubated for 10 minutes. The reaction is stopped by the addition of ice cold water (3 ml) and acidification to pH 3.5. Lipoxygenase products are then extracted twice into diethyl ether. The pooled ether extracts are evaporated to dryness under nitrogen and the residue is redissolved in a small volume of methanol and spotted on aluminum backed pre-coated thin layer chromatographic plates. The samples are then co-chromatographed with authentic reference 5,12-diHETE in the solvent system-hexane:ether:acetic acid (50:50:3). After chromatography, the areas associated with 5,12-diHETE standard are identified by autoradiography, cut out and quantitated by liquid scintillation.
The procedure of Example 17 is also employed for the determination of the ability of the compounds of the invention to inhibit the synthesis of the arachidonic acid cyclooxygenase oxidation product TxB2.
In this assay, the procedure of Example 17 is carried out as described. However, in order to determine cyclooxygenase activity, the samples are cochromatographed with authentic reference TxB2 in the solvent system ethyl acetate:formic acid (80:1) and the upper phase of ethyl acetate:isoctane:acetic acid:water (110:50:20:100). After chromatography, the areas associated with TxB2 standard are identified by autoradiography, cut out and quantitated by liquid scintillation techniques.
The results are calculated as in Example 12 and presented below: […]

Assay [5] deals with LTD4 induced bronchoconstriction. Briefly: In vivo inhibition of LTD4 induced bronchospasm in guinea pigs (exogenously administered leukotrienes). More on the design: species or system guinea pig. To be noted: 10 minutes before induction of bronchospasm (LTD4); for inhibition in vivo at 25 mg/kg: intraduodenal, intraduodenally; for ED50: intragastrically.
Assay [6] relates to 5,12-diHETE synthesis by rat glycogen-elicited polymorphonuclear leukocytes. Briefly: Inhibition of 5,12-diHETE synthesis by rat glycogen-elicited polymorphonuclear leukocytes. It is filed as cell-based. To be noted: Leukocyte, rat PMN; for IC50: A23187 10 μM, read-out: 50% Inhibitory Concentration (IC50). How it is done: This is especially true with respect to 5,12-diHETE, which is also denoted as LTB4 [see Ford-Hitchinson, J. Roy. Soc. Med., 74, 831 (1981)]. The assay of this Example measures the ability of the compounds of the invention to inhibit the synthesis of 5,12-diHETE by rat glycogen-elicited polymorphonuclear leukocytes.
as §1
Results are expressed as the 50% Inhibitory concentration, or as percent inhibition at a given.

Assay [7] relates to ovalbumin induced bronchospasm. Briefly: In vivo inhibition of ovalbumin induced bronchospasm in sensitized guinea pigs (endogenous mediators). Also on record: species or system guinea pig. To be noted: 25 mg/kg, intragastrically, 10 minutes before intravenous ovalbumin challenge. The procedure: The assay of this Example measures the in vivo ability of the compounds of the invention to inhibit the bronchospasm induced in guinea pigs by endogenous mediators of the bronchoconstriction.
Male Hartley strain guinea pigs weighing 250-350 g are sensitized to chicken ovalbumin (OA) (10 mg i.p.) on days 1 and 3 and used starting on day 26. The animals are anesthetized with pentobarbital sodium (50 mg/kg, i.p.), bilateral vagotomy is performed, and the jugular vein is cannulated for injection of drugs and the carotid artery for monitoring blood pressure. The trachea is cannulated for artificial ventilation by miniature Starling pump and for indirect measurement of respiratory volume changes as described, infra. Succinylcholine (2 mg/kg, i.v.) is administered to arrest spontaneous respiration. […]
Respiratory volume changes are determined by a calibrated piston whose travel is recorded, via a linear transducer, on a Beckman Dynograph recorder. Maximal bronchoconstrictor volume is determined by clamping off the trachea at the end of the experiment. Overflow volumes at minutes 1, 3 and 5 are obtained from the recorded charts.
Area under the volume overflow curve (AUC) is estimated, using the overflow values at 1, 3 and 5 minutes, and expressed as a percentage of the maximal overflow AUC (equation 1): [formula] […]

Setting [8] is: reference compounds, LTD4 concentration-response curve, read-out: pKB (converted).

Like-named read-outs stand apart in the source and are kept apart here.

`CCCc1c(OCCCCc2nn[nH]n2)ccc(C(C)=O)c1O` [LY-171,883, reference compound]: the “pKB (Reference)” value in assay [1] was 6.65. Further, the Kb in assay [2] (setting [8]) was 126 nM.

With `O=S(=O)(Nc1cccc(OCc2ccc3ccccc3n2)c1)C(F)(F)F` [Wy-48,252, reference compound], the “pKB (Reference)” value in assay [1] is given as 7.70. The Kb was 83.2 nM in assay [2] (antagonist concentration 1 × 10^-6 M, read-out: pKB ± S.E. (converted)) and 36.3 nM in assay [2] (setting [8]).

For `Cc1ccc(S(=O)(=O)NC(=O)c2cccc(OCc3csc(-c4ccccc4)n3)c2)cc1` [Example 8, N-[(4-Methylphenyl)sulfonyl]-3-[(2-phenyl-4-thiazolyl)methoxy]benzamide], 50 mg/kg produced 51% inhibition in vivo in assay [3]. In addition, the inhibition at 10 µM in assay [4] (10 μM) is 44%; in assay [6] (10 μM), 55%. Besides, the inhibition in vivo at 25 mg/kg in assay [5] (Cavia porcellus) came to 62%.

Compound `O=S(=O)(Nc1cccc(OCc2csc(-c3ccc(Cl)cc3)n2)c1)C(F)(F)F` [Example 9A, 1,1,1-Trifluoro-N-[3-[[2-(4-chlorophenyl)-4-thiazolyl]methoxy]phenyl]methanesulfonamide] returned an inhibition in vivo at 50 mg/kg in assay [3] of 60%. Also, the IC50 amounted to 7100 nM in assay [4] and 5200 nM in assay [6]. For the same compound, the inhibition in vivo at 25 mg/kg in assay [5] (Cavia porcellus) came out at 54%.

Regarding `O=S(=O)(Nc1cccc(OCc2csc(-c3ccccc3)n2)c1)C(F)(F)F` [Example 3, 1,1,1-Trifluoro-N-[3-[(2-phenyl-4-thiazolyl)methoxy]phenyl]methanesulfonamide], the “% Inhibition” value in assay [7] came out at 10%. The same compound gave an inhibition in vivo at 50 mg/kg in assay [3] of 51%. Moreover, the results for the IC50 in assay [4] and in assay [6] were 1700 nM and 3200 nM, respectively. Besides, the 50% effective dose (ED50) in assay [5] (Cavia porcellus, read-out: ED50) is 2.4 mg/kg; in assay [5] it was 3.0 mg/kg.

What is called inhibition in vivo is how much of the control response was suppressed. Read a high inhibition in vivo as a strong effect. What is called inhibition is the percentage by which the read-out fell short of the control. A higher inhibition goes with a response far below the control. As a reminder, the % Inhibition is the drop in the measured response relative to a control, in per cent. As usually defined, the ED50 is the dose that gives a 50% effect, or the effect in half of the subjects.

The values are drawn from patent US5103014A, “Certain 3,3'-[[[(2-phenyl-4-thiazolyl)methoxy]phenyl]methylene]dithiobis-propano ic acid derivatives” (American Home Products Corporation, priority 1990, dated 1992).
